Measured values taken from patent US20080213250A1, “Use of Eph Receptor Inhibitors for the Treatment of Neurodegenerative Diseases” (priority 2004, published 2008).

Legend:
EphA3 = target: T1, EphA3 (Mus musculus, UniProt P29319); assay: Chemical proteomics pull-down with immobilized compound, LC-MS/MS identification; settings: maximum in any chemical proteomics experiment
T1 sequence (P29319 21-983): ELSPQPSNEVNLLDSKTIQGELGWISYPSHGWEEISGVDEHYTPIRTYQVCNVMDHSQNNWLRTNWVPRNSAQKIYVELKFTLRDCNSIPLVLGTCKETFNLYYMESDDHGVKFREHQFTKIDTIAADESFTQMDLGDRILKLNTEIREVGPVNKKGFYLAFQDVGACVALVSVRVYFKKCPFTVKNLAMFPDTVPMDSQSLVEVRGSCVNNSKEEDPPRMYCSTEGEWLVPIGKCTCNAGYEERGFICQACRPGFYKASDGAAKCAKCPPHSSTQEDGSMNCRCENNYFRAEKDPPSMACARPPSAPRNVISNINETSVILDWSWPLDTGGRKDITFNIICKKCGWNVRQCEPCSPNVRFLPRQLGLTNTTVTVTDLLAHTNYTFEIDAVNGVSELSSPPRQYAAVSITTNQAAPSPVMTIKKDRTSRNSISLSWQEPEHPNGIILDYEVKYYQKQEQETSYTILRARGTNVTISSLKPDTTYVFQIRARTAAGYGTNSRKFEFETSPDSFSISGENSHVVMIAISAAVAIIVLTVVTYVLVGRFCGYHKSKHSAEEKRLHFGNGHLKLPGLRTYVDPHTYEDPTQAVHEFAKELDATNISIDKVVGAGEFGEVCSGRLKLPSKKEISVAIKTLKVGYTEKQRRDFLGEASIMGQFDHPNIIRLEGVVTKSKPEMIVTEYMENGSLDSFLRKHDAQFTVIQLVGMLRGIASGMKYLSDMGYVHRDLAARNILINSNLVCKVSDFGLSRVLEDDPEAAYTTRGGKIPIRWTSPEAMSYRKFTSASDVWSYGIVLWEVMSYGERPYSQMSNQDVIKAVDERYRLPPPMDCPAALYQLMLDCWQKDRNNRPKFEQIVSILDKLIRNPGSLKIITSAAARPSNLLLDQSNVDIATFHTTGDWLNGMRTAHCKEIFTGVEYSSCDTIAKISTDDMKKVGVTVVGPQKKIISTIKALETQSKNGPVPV

TAP-tagged Eph kinases = assay: Autophosphorylation of TAP-tagged Eph kinases in cells; type: cell-based; settings: in cells (FIG. 2)
Experimental: Cells are plated in 6-well plates in growth medium (see above). To test potential modulators, preferably inhibitors, of Eph kinase tyrosine phosphorylation, cells are starved in serum-free medium for 4 h. Under these conditions, Eph-TAP kinase is partially constitutively phosphorylated-presumably through autophosphorylation that is commonly associated with over-expression of receptor tyrosine kinases. This feature is exploited to monitor the effect of Eph kinase modulators. Test compounds are diluted (from a stock in DMSO) in serum-free medium and added to cells for indicated times. Cells are chilled on ice and washed with ice-cold PBS. They are then lysed in 300 μl lysis buffer (50 mM Tris-HCl, 1% NP-40, 0.05% SDS, 100 mM NaCl, 1.5 mM MgCl2, 2 mM EDTA, 5% glycerol, pH 7.6) for 20 min at 4 °C and cleared by centrifugation at 16,100×g in a table-top centrifuge for 20 min.
Lysates are subsequently incubated with 20 μl pre-washed rabbit IgG beads (Sigma) for 2 h with constant agitation at 4° C. Beads are finally washed with 1 ml of lysis buffer and immobilized protein complexes are eluted by boiling in 40 μl SDS sample buffer.
Blot membranes are probed with monoclonal antibody 4G10 (Upstate Biotechnology) or with HRP-coupled PAP antibody (see above).

EphA6 = target: T2, EphA6 (Mus musculus, UniProt Q62413); assay: Chemical proteomics pull-down with immobilized compound, LC-MS/MS identification; settings: maximum in any chemical proteomics experiment
T2 sequence (Q62413 23-1035): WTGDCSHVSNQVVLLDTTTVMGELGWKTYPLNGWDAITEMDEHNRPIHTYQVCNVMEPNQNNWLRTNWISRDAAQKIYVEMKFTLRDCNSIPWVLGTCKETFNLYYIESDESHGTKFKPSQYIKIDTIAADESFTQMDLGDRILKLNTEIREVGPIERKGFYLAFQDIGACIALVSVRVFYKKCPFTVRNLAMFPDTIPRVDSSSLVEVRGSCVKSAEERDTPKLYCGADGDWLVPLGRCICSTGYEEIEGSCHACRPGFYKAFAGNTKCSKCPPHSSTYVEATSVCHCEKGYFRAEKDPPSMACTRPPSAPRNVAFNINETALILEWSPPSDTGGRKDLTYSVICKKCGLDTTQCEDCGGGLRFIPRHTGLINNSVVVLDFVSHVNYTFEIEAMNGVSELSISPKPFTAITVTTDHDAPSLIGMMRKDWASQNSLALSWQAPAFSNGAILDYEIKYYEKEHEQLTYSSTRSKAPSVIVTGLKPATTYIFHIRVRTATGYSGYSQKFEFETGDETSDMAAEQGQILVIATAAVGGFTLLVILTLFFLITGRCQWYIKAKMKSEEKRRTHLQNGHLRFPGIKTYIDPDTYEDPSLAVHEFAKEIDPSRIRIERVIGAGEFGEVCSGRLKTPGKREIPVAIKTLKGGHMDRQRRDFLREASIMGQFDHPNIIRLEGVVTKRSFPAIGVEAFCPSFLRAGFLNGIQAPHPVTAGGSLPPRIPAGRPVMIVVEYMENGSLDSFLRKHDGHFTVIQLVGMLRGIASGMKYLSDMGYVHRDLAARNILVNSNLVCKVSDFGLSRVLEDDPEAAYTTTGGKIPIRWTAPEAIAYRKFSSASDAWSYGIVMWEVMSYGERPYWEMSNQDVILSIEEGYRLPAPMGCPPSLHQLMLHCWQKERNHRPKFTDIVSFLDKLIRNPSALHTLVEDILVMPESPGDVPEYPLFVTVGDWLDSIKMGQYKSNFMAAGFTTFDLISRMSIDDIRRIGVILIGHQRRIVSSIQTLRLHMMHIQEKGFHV

maximal number of non-redundant peptides identified, EphA3 (EphA3) | maximal number of non-redundant peptides identified, EphA6 (EphA6) | SMILES | inhibition of autophosphorylation of TAP-tagged Eph kinases in cells (TAP-tagged Eph kinases)
1 | – | CC(C)[C@H](CO)Nc1nc(Nc2ccc(C(=O)O)c(Cl)c2)c2ncn(C(C)C)c2n1 [Purvalanol B] | –
– | 7 | CSc1cccc(Nc2ncc3cc(-c4c(Cl)cccc4Cl)c(=O)n(C)c3n2)c1 [PD173955] | potent inhibitors
